Source: PMC6204216 (Archives of biochemistry and biophysics, 2018)
Like-named read-outs stand apart in the source and are kept apart here.

Columns and labels:
AChE [1] = molecular target: T1, AChE (Homo sapiens, UniProt P22303); settings: cited from earlier work
Target sequence in this assay (P22303 32-614): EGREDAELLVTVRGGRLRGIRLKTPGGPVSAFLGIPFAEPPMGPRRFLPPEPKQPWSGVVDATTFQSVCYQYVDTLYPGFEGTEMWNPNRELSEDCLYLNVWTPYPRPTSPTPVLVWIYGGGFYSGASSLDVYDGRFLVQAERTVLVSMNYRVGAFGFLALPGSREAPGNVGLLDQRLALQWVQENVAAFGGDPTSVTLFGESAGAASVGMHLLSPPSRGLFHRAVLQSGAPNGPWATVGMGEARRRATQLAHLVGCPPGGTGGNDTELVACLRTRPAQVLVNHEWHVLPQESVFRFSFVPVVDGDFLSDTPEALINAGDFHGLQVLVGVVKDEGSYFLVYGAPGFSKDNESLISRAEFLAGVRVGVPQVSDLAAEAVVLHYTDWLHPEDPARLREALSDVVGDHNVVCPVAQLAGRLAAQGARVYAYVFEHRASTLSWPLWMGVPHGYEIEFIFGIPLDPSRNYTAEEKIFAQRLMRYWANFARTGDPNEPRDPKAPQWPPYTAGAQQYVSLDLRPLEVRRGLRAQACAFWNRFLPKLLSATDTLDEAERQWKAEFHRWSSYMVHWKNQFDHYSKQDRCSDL

AChE [2] = molecular target: T1, AChE; experiment: Literature carbamoylation and decarbamoylation of AChE; assay type: biochemical
Target sequence in this assay (P22303 32-614): as above

AChE [3] = molecular target: T1, AChE; settings: after carbamoylation of hAChE; cited from earlier work
Target sequence in this assay (P22303 32-617 isoform P22303-2 limits assumed): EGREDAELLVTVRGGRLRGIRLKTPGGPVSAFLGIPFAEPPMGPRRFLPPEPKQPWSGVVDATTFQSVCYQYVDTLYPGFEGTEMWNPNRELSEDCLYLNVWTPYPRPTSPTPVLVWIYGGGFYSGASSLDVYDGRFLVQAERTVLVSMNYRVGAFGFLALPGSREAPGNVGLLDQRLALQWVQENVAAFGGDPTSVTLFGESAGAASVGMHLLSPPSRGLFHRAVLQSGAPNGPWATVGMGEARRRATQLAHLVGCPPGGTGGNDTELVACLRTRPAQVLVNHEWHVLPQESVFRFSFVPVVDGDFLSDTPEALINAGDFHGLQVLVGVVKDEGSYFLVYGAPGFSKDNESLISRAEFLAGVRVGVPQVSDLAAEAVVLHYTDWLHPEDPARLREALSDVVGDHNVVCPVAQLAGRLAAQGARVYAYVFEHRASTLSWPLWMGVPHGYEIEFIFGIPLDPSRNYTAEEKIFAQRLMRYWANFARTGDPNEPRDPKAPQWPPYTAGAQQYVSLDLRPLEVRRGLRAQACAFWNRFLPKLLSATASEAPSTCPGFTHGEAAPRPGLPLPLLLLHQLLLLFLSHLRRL

AChE [4] = molecular target: T1, AChE; settings: for k21 × 10^6 (decarbamoylation rate constant): 25 °C, absence of carbamate, mean ± SEM of n measurements
Target sequence in this assay (P22303 32-617 isoform P22303-2 limits assumed): as above

AChE [5] = molecular target: T1, AChE; experiment: Solvent deuterium oxide kinetic isotope effect on decarbamoylation; assay type: biochemical; settings: 25 °C, pH 7.0, mean ± SE
Target sequence in this assay (P22303 32-617 isoform P22303-2 limits assumed): as above

AChE [6] = molecular target: T1, AChE; experiment: Carbamoylation of AChE, qualitative observations; assay type: biochemical
Target sequence in this assay (P22303 32-614): as the sequence (P22303 32-614) above

[7] = Stability of aqueous solutions; assay type: physicochemical
AChE [8] = molecular target: T1, AChE; assay type: biochemical
Target sequence in this assay (P22303 32-617 isoform P22303-2 limits assumed): as the sequence (P22303 32-617 isoform P22303-2 limits assumed) above

AChE in rat brain = settings: in vivo, 37 °C; cited from earlier work
[9] = k12 data fitted to Eq. 1a, 25 °C

For `CCN(CC)C(=O)OCC[N+](C)(C)C` [N,N-diethylcarbamoyl choline, reference compound], the “Formation of N,N-diethylcarbamoylated AChE” value (AChE [1]) is given as “failed to detect”.
In the case of `C[N+](C)(C)CCOC(N)=O` [carbamoyl choline], the “k21 larger than that for N-monomethylcarbamoylated AChE” value (AChE [2]) is reported as 10 fold.
In the case of `C[C@@H]1CN(CCCCCCCCNC(=O)Oc2ccc3c(c2)[C@]2(C)CCN(C)[C@@H]2N3C)C[C@H](C)O1` [MF268], the k21 (AChE [3]) is listed as “too small to be measured”.
In the case of `CCN(CC)C(=O)Oc1cccc([N+](C)(C)C)c1` [N,N-diethyl HTMA], the “k21 × 10^6 (decarbamoylation rate constant)” value (AChE [4]; second protocol) is reported as 16 ± 5 min^−1 and the “k21 ^H2O / k21^D2O (deuterium oxide kinetic isotope effect on k21)” value (AChE [5]) is reported as 1.1 ± 0.2.
In the case of `CNC(=O)Oc1cccc2ccccc12` [carbaryl, reference compound], the “k21 × 10^6 (decarbamoylation rate constant)” value (AChE [4]; second protocol) is reported as 11300 ± 600 min^−1.
With `CCN(C)C(=O)Cl` [EMCC, N-ethyl–N-methylcarbamoyl chloride] the “Carbamoylation of AChE” value (AChE [6]) was “poorly” and the “Stability of aqueous solutions” value [7] was “very unstable”.
For `CCN(C)C(=O)Oc1cccc([N+](C)(C)C)c1` [N-ethyl-N-methyl HTMA], the “k21 × 10^6 (decarbamoylation rate constant)” value (AChE [4]; second protocol) was 150 ± 20 min^−1 and the “k21 ^H2O / k21^D2O (deuterium oxide kinetic isotope effect on k21)” value (AChE [5]) was 1.8 ± 0.2.
In the case of `CNC(=O)Oc1cccc([N+](C)(C)C)c1` [Monomethyl neostigmine], the “k21 × 10^6 (decarbamoylation rate constant)” value (AChE [4]; second protocol) is reported as 12300 ± 400 min^−1, the “R (fraction of total enzyme carbamoylated at reaction initiation)” value (AChE [4]; after spin column, Figure 3 fit) is reported as 0.90 and the k21 (AChE [4]; second protocol, Figure 3a fit, 0.25 mM acetylthiocholine) is reported as 12.9 ± 0.02 × 10^−3 min^−1. The “k21 ^H2O / k21^D2O (deuterium oxide kinetic isotope effect on k21)” value (AChE [5]; listed as N-monomethyl HTMA) was 2.8 ± 0.2, the “k21 ^H2O / k21^D2O (deuterium oxide kinetic isotope effect on k21)” value (AChE [5]; listed as N-monomethyl neostigmine) was 2.8 and the k21 (AChE [8]; first protocol, Figure 2, paper calls estimates below 0.01 min^−1 unreliable) was 0.013 min⁻¹. The k2/KD (AChE [8]; fitted to Eq. 1a) was 16 ± 2 min^−1μM^−1, the Kd (AChE [8]; [9]) was 3.2 ± 0.4 µM and the “k2 (carbamoylation)” value (AChE [8]; [9]) was 51 ± 2 min⁻¹.
In the case of `CN(C)C(=O)Oc1cccc([N+](C)(C)C)c1` [neostigmine, reference compound], the “k21 × 10^6 (decarbamoylation rate constant)” value (AChE [4]; second protocol) is reported as 3600 ± 300 min^−1 and the “k21 ^H2O / k21^D2O (deuterium oxide kinetic isotope effect on k21)” value (AChE [5]) is reported as 2.4 ± 0.2.
For `CCN(CC)C(=O)F` [N,N-diethyl F, N,N-diethylcarbamoyl fluoride], the “k21 × 10^6 (decarbamoylation rate constant)” value (AChE [4]; second protocol) is given as 7 ± 1 min^−1, the “Formation of N,N-diethylcarbamoylated AChE” value (AChE [1]) is given as “failed to detect” and the “Recovery half time of AChE” value (AChE in rat brain) is given as 182 h.
